{"source": "patent US11918572B2", "about": "“Pharmaceutical compositions for treating pain” (REBEL MEDICINE INC, priority 2022, dated 2024)", "key": {"[1]": {"assay": "controlled release of drug from the formulation (dialysis bag in PBS sink, UV 272 nm)", "type": "physicochemical", "protocol": "(§1) The controlled release of the formulation was evaluated where 0.5 mL of the formulation was placed into a dialysis bag (10 kDa) and submerged in 50 mL sink of phosphate buffered saline (1×; pH 7.4). The samples were placed into a rotating incubator (1 Hz) at 37° C. At designated timepoints, 2 mL of saline was removed and analyzed using ultraviolet visible spectrophotometry (272 nm). The entire sink medium was replaced at each timepoint until drug no longer eluted out of the system.\nas §1, with “The release of bupivacaine is shown in a formulation including MCT oil and glycerol monostearate as a structuring agent with and without the presence of an anion to increase hydrophobicity. […] The controlled” for “The controlled”, “buffered saline (lx; pH 7.4).” for “buffered saline (1×; pH 7.4).”"}, "[2]": {"assay": "max solubility of bupivacaine in oil (37° C. overnight, centrifuge, UV 272 nm)", "quoted_text": "The solubility of bupivacaine in a blend of MCT oil and castor oil was studied. […] The max solubility of the oil blends was determined by adding 300 mg of bupivacaine free base into 3 mL of an MCT: castor oil mixture. […] After rotating, samples were spun in a centrifuge at 2000×g for 5 minutes. Next, 30 uL of sample supernatant was taken and dissolved to 1470 uL of ethanol and analyzed using ultraviolet visible spectrophotometry (272 nm)."}, "[3]": {"assay": "solubility of ropivacaine forms in lipophilic oils", "type": "physicochemical"}}}
{"smiles": "CCCCC(CC)COC(=O)CC(C(=O)OCC(CC)CCCC)S(=O)(=O)O.CCCCN1CCCCC1C(=O)Nc1c(C)cccc1C", "note": "(stereo not drawn) [bupivacaine with docusate, bupivacaine docusate]", "values": [{"measurement": "release of bupivacaine with and without an anion", "setting": "[1]; FIG. 13, MCT oil and glycerol monostearate, PBS pH 7.4, 37° C.", "result": "prolonged"}]}
{"smiles": "CCCCN1CCCCC1C(=O)Nc1c(C)cccc1C", "note": "(stereo not drawn) [bupivacaine]", "values": [{"measurement": "drug release with specific blends of oil", "setting": "[1]; MCT oil:castor oil blends", "result": "slows"}, {"measurement": "drug solubility in castor oil versus MCT", "setting": "[2]", "result": "higher drug solubility in castor oil than MCT"}, {"measurement": "solubility of bupivacaine (drug loading) in blends of MCT oil and castor oil", "setting": "[2]; FIG. 11, 37° C. overnight", "result": "drug loading increases with specific blends of oil"}]}
{"smiles": "CCCCC(CC)COC(=O)CC(C(=O)OCC(CC)CCCC)S(=O)(=O)O.CCCN1CCCCC1C(=O)Nc1c(C)cccc1C", "note": "(stereo not drawn) [ropivacaine docusate]", "values": [{"measurement": "solubility in lipophilic oils such as medium-chain triglycerides", "setting": "[3]", "result": "suitable solubility"}]}
{"smiles": "CCCN1CCCC[C@H]1C(=O)Nc1c(C)cccc1C", "note": "[ropivacaine]", "values": [{"measurement": "solubility in lipophilic oils such as medium-chain triglycerides", "setting": "[3]", "result": "poor solubility"}]}
